Measurements taken from patent publication US11304946B2, “2-hetarylpyrimidine-4-carboxamides as aryl hydrocarbon receptor antagonists” (Bayer Aktiengesellschaft, priority 2017, dated 2022).

Legend:
[1] = biological target: T1, Mouse AhR (Mus musculus, UniProt P30561); experiment: Transactivation assay in mouse cell line (in vitro assay 2: antagonism); assay type: cell-based; conditions: Hepa 1c1c7 cells, AHR inducible (DRE) firefly luciferase reporter, 200 μM kynurenic acid, 20 hours
T1 sequence (P30561 1-848): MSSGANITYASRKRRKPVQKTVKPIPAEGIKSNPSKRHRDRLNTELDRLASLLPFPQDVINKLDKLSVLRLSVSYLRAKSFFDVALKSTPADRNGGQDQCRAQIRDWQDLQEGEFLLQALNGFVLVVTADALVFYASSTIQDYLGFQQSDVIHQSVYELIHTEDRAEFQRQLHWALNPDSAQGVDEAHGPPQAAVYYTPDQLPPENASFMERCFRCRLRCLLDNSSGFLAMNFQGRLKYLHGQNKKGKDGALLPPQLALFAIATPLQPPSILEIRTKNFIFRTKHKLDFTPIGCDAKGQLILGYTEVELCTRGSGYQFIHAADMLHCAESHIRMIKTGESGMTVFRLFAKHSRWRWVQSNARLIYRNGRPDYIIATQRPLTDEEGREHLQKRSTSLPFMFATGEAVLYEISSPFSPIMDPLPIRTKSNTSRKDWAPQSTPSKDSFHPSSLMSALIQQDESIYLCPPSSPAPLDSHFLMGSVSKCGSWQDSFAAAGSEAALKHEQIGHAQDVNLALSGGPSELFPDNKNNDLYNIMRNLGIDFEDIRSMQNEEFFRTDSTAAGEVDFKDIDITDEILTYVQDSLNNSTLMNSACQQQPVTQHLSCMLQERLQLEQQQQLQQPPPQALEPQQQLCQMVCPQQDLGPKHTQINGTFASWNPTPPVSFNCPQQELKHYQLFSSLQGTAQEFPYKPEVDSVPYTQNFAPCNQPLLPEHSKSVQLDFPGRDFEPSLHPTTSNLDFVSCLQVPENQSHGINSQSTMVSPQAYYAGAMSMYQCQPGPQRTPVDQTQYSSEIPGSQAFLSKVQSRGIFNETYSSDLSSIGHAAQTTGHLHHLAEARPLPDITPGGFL
Outline: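 Hepa 1c1c7 cells express AhR endogenously and stably carry a DRE-driven firefly luciferase reporter. They were prestimulated with the agonist kynurenic acid before compound testing for antagonism. Luciferase read by SteadyGlo luminescence.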

[2] = biological target: T2, Human AhR (Homo sapiens, UniProt P35869); experiment: Transactivation assay in human cell line (in vitro assay 1: antagonism); assay type: cell-based; conditions: U87 glioblastoma cells, AHR inducible (DRE) firefly luciferase reporter, 150 μM kynurenic acid, 20 hours
T2 construct: host or cells: U87 glioblastoma cells, stably transfected with DRE-driven firefly luciferase and constitutive renilla reporter constructs
T2 sequence (P35869 11-848): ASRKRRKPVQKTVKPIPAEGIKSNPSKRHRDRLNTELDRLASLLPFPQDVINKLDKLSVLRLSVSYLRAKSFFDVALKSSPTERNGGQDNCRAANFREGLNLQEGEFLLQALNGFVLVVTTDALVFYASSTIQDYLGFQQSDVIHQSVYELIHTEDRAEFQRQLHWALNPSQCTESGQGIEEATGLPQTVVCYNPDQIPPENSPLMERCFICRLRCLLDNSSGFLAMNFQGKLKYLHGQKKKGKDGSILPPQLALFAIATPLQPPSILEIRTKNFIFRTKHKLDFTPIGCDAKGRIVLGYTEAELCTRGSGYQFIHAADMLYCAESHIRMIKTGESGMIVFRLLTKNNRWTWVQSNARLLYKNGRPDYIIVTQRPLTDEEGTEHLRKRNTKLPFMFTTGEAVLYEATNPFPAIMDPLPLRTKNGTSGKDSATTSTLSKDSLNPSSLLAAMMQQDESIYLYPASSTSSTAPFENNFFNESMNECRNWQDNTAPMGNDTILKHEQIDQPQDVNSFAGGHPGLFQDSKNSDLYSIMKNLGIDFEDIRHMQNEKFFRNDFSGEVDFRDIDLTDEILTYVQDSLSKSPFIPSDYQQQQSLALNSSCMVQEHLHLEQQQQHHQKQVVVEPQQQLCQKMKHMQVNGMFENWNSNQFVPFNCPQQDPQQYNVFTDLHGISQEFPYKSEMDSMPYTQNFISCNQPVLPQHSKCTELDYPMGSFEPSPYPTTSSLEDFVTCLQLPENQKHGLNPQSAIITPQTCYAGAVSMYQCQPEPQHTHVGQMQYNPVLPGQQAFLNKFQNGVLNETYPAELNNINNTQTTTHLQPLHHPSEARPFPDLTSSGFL
Outline: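 U87 glioblastoma cells with endogenous AHR, stably carrying DRE-driven firefly luciferase and constitutive Renilla reporters, prestimulated with kynurenic acid before compound. Dual luciferase read-out; Renilla signal used to flag toxicity.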

Compound | IC50 [1] [nM] | IC50 [2] [nM]
C[C@@H](CO)NC(=O)c1cc(-c2ccc(OC(F)(F)F)cc2)nc(-c2cn[nH]c2)n1 [Example 41, N-[(2S)-1-hydroxypropan-2-yl]-2-(1H-pyrazol-4-yl)-6-[4-(trifluoromethoxy)phenyl]pyrimidine-4-carboxamide] | 55.8 | 97.6
C[C@@H](CO)NC(=O)c1cc(-c2ccc(Cl)cc2)nc(-c2ccc(C#N)s2)n1 [Example 70, 6-(4-chlorophenyl)-2-(5-cyanothiophen-2-yl)-N-[(2S)-1-hydroxypropan-2-yl]pyrimidine-4-carboxamide] | 295 | 94.2
Cn1nccc1-c1nc(C(=O)NCC(C)(C)O)cc(-c2ccc(Cl)cc2)n1 [Example 54, 6-(4-chlorophenyl)-N-(2-hydroxy-2-methylpropyl)-2-(1-methyl-1H-pyrazol-5-yl)pyrimidine-4-carboxamide] | 41.1 | 36.6
Cc1nn(C)cc1-c1nc(C(=O)N[C@@H](C)CO)cc(-c2ccc(OC(F)(F)F)cc2)n1 [Example 43, 2-(1,3-dimethyl-1H-pyrazol-4-yl)-N-[(2S)-1-hydroxypropan-2-yl]-6-[4-(trifluoromethoxy)phenyl]pyrimidine-4-carboxamide] | 271 | 25.2
CC(C)(O)CNC(=O)c1cc(-c2ccc(OC(F)(F)F)cc2)nc(-c2cnoc2)n1 [Example 22, N-(2-hydroxy-2-methylpropyl)-2-(1,2-oxazol-4-yl)-6-[4-(trifluoromethoxy)phenyl]pyrimidine-4-carboxamide] | 5530 | 1100
